In ChEMBL document CHEMBL5131528, “2-Aminoquinazolines as LRRK2 Inhibitors for Treating Parkinson's Disease” (ACS Med Chem Lett, 2022):

Target: Leucine-rich repeat serine/threonine-protein kinase 2 (Homo sapiens, UniProt Q5S007, G2019S)
Assay: Inhibition of GST-tagged truncated human LRRK2 G2019S mutant using fluorescein labeled LRRKtide peptide as substrate preincubated for 15 mins followed by substrate addition and measured after 90 mins in presence of ATP at Km concentration by TR-FRET Lanthascreen assay

Sequence of Leucine-rich repeat serine/threonine-protein kinase 2 (Q5S007 whole entry G2019S, the tested form may be a part): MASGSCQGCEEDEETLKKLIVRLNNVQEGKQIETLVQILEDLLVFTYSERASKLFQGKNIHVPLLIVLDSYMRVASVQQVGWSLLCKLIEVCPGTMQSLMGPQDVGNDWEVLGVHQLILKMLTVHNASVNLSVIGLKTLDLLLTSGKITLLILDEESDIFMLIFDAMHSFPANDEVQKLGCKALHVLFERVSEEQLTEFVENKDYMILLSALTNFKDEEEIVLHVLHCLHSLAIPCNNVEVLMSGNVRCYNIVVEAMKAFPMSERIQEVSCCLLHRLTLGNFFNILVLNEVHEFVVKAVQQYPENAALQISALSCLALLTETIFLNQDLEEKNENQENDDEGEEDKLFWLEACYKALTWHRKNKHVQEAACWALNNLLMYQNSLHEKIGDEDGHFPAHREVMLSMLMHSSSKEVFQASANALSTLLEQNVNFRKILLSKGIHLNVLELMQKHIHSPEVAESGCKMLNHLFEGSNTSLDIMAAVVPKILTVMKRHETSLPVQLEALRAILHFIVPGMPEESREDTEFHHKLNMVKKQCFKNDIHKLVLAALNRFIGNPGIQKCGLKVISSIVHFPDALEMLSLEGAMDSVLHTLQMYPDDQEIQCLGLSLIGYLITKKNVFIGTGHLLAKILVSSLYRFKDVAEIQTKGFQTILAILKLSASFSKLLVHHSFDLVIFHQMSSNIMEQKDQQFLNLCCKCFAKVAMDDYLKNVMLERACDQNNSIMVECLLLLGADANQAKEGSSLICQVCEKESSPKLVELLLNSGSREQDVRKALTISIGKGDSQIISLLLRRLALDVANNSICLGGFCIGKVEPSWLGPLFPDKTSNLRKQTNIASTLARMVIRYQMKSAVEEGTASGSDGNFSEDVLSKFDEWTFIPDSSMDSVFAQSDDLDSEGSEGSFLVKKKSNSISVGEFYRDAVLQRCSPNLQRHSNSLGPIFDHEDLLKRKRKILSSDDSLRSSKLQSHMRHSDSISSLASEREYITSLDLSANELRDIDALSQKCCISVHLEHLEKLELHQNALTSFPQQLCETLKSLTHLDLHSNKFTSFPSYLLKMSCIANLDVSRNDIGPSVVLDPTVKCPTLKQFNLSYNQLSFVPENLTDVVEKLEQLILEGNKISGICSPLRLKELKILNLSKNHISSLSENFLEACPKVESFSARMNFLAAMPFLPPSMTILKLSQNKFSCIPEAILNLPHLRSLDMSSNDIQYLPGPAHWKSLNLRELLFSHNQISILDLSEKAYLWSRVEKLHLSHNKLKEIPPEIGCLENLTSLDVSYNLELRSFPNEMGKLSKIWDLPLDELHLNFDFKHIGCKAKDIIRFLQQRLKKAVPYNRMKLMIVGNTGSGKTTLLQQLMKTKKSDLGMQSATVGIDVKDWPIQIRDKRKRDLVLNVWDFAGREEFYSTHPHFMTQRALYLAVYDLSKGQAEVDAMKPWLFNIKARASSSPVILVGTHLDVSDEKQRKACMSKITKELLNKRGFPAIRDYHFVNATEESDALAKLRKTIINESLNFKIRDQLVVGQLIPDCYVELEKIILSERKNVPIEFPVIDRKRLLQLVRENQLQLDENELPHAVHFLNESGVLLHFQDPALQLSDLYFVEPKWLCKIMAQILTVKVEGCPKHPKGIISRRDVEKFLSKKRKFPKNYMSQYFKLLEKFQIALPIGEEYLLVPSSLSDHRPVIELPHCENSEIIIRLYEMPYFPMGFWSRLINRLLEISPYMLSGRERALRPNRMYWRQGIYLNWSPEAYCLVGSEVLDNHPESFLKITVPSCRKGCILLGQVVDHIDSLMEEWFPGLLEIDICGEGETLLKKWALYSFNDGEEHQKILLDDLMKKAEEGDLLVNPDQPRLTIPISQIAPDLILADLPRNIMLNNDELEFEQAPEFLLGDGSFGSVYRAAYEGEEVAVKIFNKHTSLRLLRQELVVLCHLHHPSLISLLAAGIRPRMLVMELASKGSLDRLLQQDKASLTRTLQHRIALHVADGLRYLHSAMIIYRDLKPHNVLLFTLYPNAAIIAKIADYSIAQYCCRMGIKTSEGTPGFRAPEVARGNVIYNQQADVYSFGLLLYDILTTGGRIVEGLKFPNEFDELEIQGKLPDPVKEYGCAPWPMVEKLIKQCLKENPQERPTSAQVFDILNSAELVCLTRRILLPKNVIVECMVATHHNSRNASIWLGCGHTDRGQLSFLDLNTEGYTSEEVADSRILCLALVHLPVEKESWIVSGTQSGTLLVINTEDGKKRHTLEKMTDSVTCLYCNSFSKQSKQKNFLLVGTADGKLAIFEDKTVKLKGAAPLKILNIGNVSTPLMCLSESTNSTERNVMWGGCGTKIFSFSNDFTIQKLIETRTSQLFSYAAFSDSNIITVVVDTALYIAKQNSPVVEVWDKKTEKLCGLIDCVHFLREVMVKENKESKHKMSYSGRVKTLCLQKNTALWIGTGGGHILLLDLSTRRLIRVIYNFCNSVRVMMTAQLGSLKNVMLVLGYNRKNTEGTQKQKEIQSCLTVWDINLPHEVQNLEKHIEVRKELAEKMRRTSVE

IC50 [nM]	SMILES
0.0646	CC1NN=CC1Nc1ncc2cc(Cl)c(N3CCC(C)(O)C(C)C3)cc2n1 (stereo unspecified)
0.0759	CC(C)(O)CN1CCN(c2cc3nc(Nc4cnn(C5CC5)c4Cl)ncc3cc2Cl)CC1
0.174	Clc1cc2cnc(Nc3cnn(C45CC(C4)C5)c3Cl)nc2cc1N1CCC2(CCCO2)CC1
0.187	CC(C)(C)Cn1cc(Nc2ncc3cc(Cl)c(N4CCC(C5(C)COC5)CC4)cc3n2)cn1
0.451	Cc1c(Nc2ncc3cc(Cl)c(N4C(=O)OC[C@H]4C)cc3n2)cnn1C1CCOCC1
0.169	CC1(O)CCN(c2cc3nc(Nc4cnn(C5CC5)c4Cl)ncc3cc2Cl)C1 (stereo unspecified)
